pEC50: −log10 of the molar value. Like-named read-outs stand apart in the source and are kept apart here.
Assays:
HIV-1 BaL = assay: Antiretroviral potency with and without INK128 in PBLs infected with HIV BaL; assay type: cell-based; settings: Human immunodeficiency virus 1, BAL, PBMC, PBMCs, two donors
Experimental: PBLs were separated from buffy coats by density centrifugation over Ficoll-Hypaque (Sigma™), and activated by culture in the presence of 1 μg/mL anti-human CD3 antibody (clone x35, Fisher Scientific™) and 2 μg/mL anti-human CD28 antibody (Clone CD28.6, eBioscience™) for 3 days. Activated cells were infected by incubation with virus at a multiplicity of infection (MOI) of 0.001 for 2 hours. Infected cells were washed three times with PBS and cultured in 5% CO2 at 37° C., in RPMI/10% FBS supplemented with 100 units/mL IL-2 (Roche™) and antiviral drugs, in 96-well flat-bottom plates at a density of […] PBLs per 200 μL. Following 3 d of culture, half of the medium was replaced with fresh medium containing IL-2 and antiviral drugs. On day 7, viral replication was measured by p24 ELISA (Coulter) in culture supernatants and cell viability was measured by MTT assays.
Available ARTs target the HIV lifecycle steps of entry, reverse transcription, integration, and maturation. […] In addition, by targeting virus transcription, INK128 could have favorable interactions with inhibitors of reverse transcription (RTIs), integration (Hs), and protease (PIs). […] We conducted these assays in activated PBLs infected with R5 HIV BaL and treated with various dilutions of Maraviroc (CCR5 antagonist), Efavirenz (RTI), Raltegravir (II), and Indinavir (PI). INK128 was used at low concentrations (<EC50) to better detect changes in ART potency (Table 7).
Prism software. Data are from 2 experiments, each with a different donor.

HIV-1 = assay: HIV production in PHA activated PBMCs, p24 ELISA day 7; settings: p24 day 7
[1] = +3 nM INK128, read-out: EC50 (geometric mean)
[2] = +10 nM INK128, read-out: EC50 (geometric mean)
[3] = No INK128, read-out: EC50 (geometric mean)

| pEC50 (HIV-1 BaL; [1]) | pEC50 (HIV-1 BaL; [2]) | pEC50 (HIV-1 BaL; [3]) | Compound | also measured |
| --- | --- | --- | --- | --- |
| 9.29 | 9.29 | 9.28 | O=C1Nc2ccc(Cl)cc2[C@@](C#CC2CC2)(C(F)(F)F)O1 [EFV] |  |
| 8.50 | 8.52 | 8.42 | CC(C)(C)NC(=O)[C@@H]1CN(Cc2cccnc2)CCN1C[C@@H](O)C[C@@H](Cc1ccccc1)C(=O)N[C@H]1c2ccccc2C[C@H]1O [IND] |  |
|  |  |  | Cc1nnc(C(=O)NC(C)(C)c2nc(C(=O)NCc3ccc(F)cc3)c(O)c(=O)n2C)o1 [RAL] | pEC50 (HIV-1 BaL; read-out: EC50 (geometric mean), +3 nM INK128): 9.09; pEC50 (HIV-1 BaL; read-out: EC50 (geometric mean), +10 nM INK128): 9.24; pEC50 (HIV-1 BaL; read-out: EC50 (geometric mean), No INK128): 9.19 |
|  |  |  | Nc1ccc(-c2ccc3ncc4ccc(=O)n(-c5cccc(C(F)(F)F)c5)c4c3c2)cn1 [Torin-2, 9-(6-Amino-3-pyridinyl)-1-[3-(trifluoromethyl)phenyl]-benzo[h]-1,6-naphthyridin-2(1H)-one] | cell toxicity (PBMCs): absence of cell toxicity; HIV inhibition in vitro (HIV-1): inhibits HIV in vitro |

Reference: patent publication US11364242B2, “Treatment agents for inhibiting HIV and cancer in HIV infected patients” (UNIVERSITY OF MARYLAND, BALTIMORE, priority 2015, dated 2022)
